Results as given in US11547737B2, “Compositions and methods for treating virus infection” (priority 2020, dated 2023).
Where two headings read alike, the source gives them in different places.

How the values were obtained:
SARS-CoV-2 = assay: microbe, parasite or virus in culture; type: cell-based; conditions: for EC50: read-out: Effective drug concentration (EC50); for antiviral activity: used alone
in vitro = conditions: African green monkey (Cercopithecus aethiops)
Zn influx into the cell = assay: Zn penetration into the cells; type: cell-based
[1] = Solid form stability of CHP forms by XRPD (storage, drying, DVS)
[2] = test system: RTCs of equine arteritis virus (EAV); conditions: in vitro; cited from earlier work
RTCs of SARS-CoV = conditions: in vitro; cited from earlier work
COVID-19 = conditions: hospitalized COVID-19 patients, compared to standard of care, interim trial results; cited from earlier work
[3] = muscle tissues and intestinal segments; cited from earlier work

Question: Which results are given for CCN(CC)CCCC(C)Nc1ccnc2cc(Cl)ccc12 (stereo not drawn) [Chloroquine, chloroquine]?
Answer: EC50 (SARS-CoV-2; Severe acute respiratory syndrome coronavirus 2, Vero): 13 µM; CC50 (in vitro): > 100 µM; Zn penetration into the cells (Zn influx into the cell): an increase of Zn penetration into the cells

Question: Which results are given for O=C1N[C@@H](Cc2cnc[nH]2)C(=O)N2CCC[C@@H]12 [CHP hydrate, cyclo(-His-Pro) hydrate]?
Answer: form by XRPD ([1]; post various temperature DVS (VT-DVS)): a mixture of Patterns 1 and 2; change in form by XRPD ([1]; post-DVS, 40% RH): no change in form; change in form by XRPD ([1]; stored 40° C./75% RH, seven days): no change; change in form by XRPD ([1]; stored at 80° C., seven days): converted to Pattern 1; change in form by XRPD ([1]; stored at ambient light, seven days): no change; pKa (physchem): ~6.4

Question: Which “cytotoxicity (cell killing)” value (Vero cells; at the concentration of 600 μmol) does the source give for [Zn+2] [Zn, zinc] here?
Answer: kills the cells

Question: And the CC50 (Vero cells; read-out: Cytotoxicity (CC50), Vero cells, concentration resulting in 50% cell death)?
Answer: 486 µM

Question: And the EC50 (SARS-CoV-2; Vero cells, SARS-CoV-2 MOI 0.1, concentration inhibiting virus replication by 50%)?
Answer: 480 µM

Question: What about the antiviral activity (SARS-CoV-2; at concentrations 200 μmol or lower) of the same compound?
Answer: does not show any antiviral activity

Question: What about the “RNA-synthesizing activity of the RTCs” value [2] of the same compound?
Answer: efficiently inhibits

Question: What about the “RNA-synthesizing activity of the RTCs” value (RTCs of SARS-CoV) of the same compound?
Answer: efficiently inhibits

Question: With CCN(CCO)CCCC(C)Nc1ccnc2cc(Cl)ccc12 (stereo not drawn) [hydroxychloroquine] as the compound, how does the “reduction in the mortality” value (COVID-19) read?
Answer: little or no reduction

Question: Which “form by XRPD” value ([1]; Pattern 1 post dynamic vapor sorption (DVS)) does the source give for O=C1N[C@@H](Cc2cnc[nH]2)C(=O)N2CCC[C@@H]12 [Pattern 1] here?
Answer: changed to Pattern 2

Question: For O=C1N[C@@H](Cc2cnc[nH]2)C(=O)N2CCC[C@@H]12 [CHP, Cyclo(-His-Pro)], which “zinc absorption and uptake” value [3] is on record?
Answer: enhanced zinc absorption and uptake

Question: And the “Selectivity index (SI) CC50/EC50” value (SARS-CoV-2; calculated CC50/EC50)?
Answer: ≥ 1.6

Question: What about the antiviral activity (SARS-CoV-2; at a concentration of 10 μmol or lower) of the same compound?
Answer: does not show antiviral activity

Question: And the antiviral activity (SARS-CoV-2; at the concentration of 30 mmol)?
Answer: shows an antiviral activity
